Source: US20240123079A1 (Seagen Inc., priority 2021, published 2024)

Columns and labels:
Ls174T = assay: Cancer cell direct cytotoxicity assay (CellTiter-Glo), Ls174T; format: cell-based; details: Homo sapiens, 96 h, free compound, read-out: Compound X50
Procedure: Bystander activity of ADCs was evaluated using Renca cancer cells and THP1-Dual™ cells (InvivoGen) which contain an IRF-Lucia luciferase reporter. Cells were cultured in RPMI-1640 (Gibco) with 10% heat-inactivated fetal bovine serum, Pen-Strep (100 U/ml-100 μg/ml, Gibco), HEPES (10 mM, Gibco), sodium pyruvate (1 mM, Gibco), MEM non-essential amino acids (1×, Gibco), GlutaMAX (1×, Gibco), and beta-mercaptoethanol (55 μM, Gibco). Renca cells were plated in a 96-well flat bottom tissue culture-treated clear polystyrene plate (Corning Costar #3596) at 50,000 cells per well in 100 μL. On the day following the initial plating, 50,000 THP1-Dual™ cells were added to each well with the indicated concentration of ADC in a total volume of 200 μL. Supernatant was harvested at 48 hours post addition of the THP1-Dual™ cells. To measure Lucia reporter signal, 10 μL of supernatant was combined with 40 μL of QUANTI-Luc™ Luminescence assay reagent (Invivogen PN: rep-qlc1) in a 96-well clear flat bottom tissue culture-treated black polystyrene plate (Corning Costar PN: 3603) and read on a Perkin Elmer Envision plate reader. In some experiments, HEK 293T cells engineered to express a murine protein typically expressed by immune cells (target antigen C— an immune cell antigen) were plated as above instead of Renca tumor cells. Cancer Cell Direct Cytotoxicity Assay
Cancer cells were counted and plated in 40 μL complete growth media in 384-well, white-walled tissue culture treated plates (Corning). Cell plates were incubated at 37° C. and with 5% CO2 overnight to allow the cells to equilibrate. Stock solutions containing ADCs or free drugs were serially diluted in RPMI-1640+20% fetal bovine serum (FBS). 10 μL of each concentration were then added to each cell plate in duplicate. Cells were then incubated at 37° C. and with 5% CO2 for 96 hours, upon which, the cell plates were removed from the incubator and allowed to cool to room temperature for 30 minutes prior to analysis. […] The luminescence of the samples was measured using an EnVision Multimode plate reader (Perkin Elmer, Waltham, MA). […]

[1] = In vivo cytokine assay, plasma of Renca tumor-bearing mice; parameters: species or system mouse; details: for IL1β in plasma / IL12p70 in plasma / IL-6 in plasma / IL-10 in plasma / IP10 in plasma / MCP-1 in plasma / IFNγ in plasma: Renca tumor-bearing mice, 1.48 mg/kg
Procedure: Cytokines were measured in mouse plasma harvested at 3, 6, 24, or 48 hours after treatment with compounds or ADCs using a Milliplex MAP mouse cytokine/chemokine magnetic bead panel assay kit (MCYTOMAG-70k custom 11-plex kit: MCP1, MIP1α, MIP1β, TNFα, IFNγ, IL-10, IL-12p70, IL-6, IL-1β, IP10, RANTES) and analyzed using a Luminex™ MAGPIX™ Instrument System. Values that were outside of the standard curve range (<3.2 or […]) were excluded from calculation of the mean values.

Q: What does the source list for CCn1nc(C)cc1C(=O)Nc1nc2cc(C(N)=O)cc(O)c2n1C/C=C/Cn1c(NC(=O)c2cc(C)nn2CC)nc2cc(C(N)=O)cc(OC)c21 [Compound 1, (E)-1-(4-(5-carbamoyl-2-(1-ethyl-3-methyl-1H-pyrazole-5-carboxamido)-7-hydroxy-1H-benzo[d]imidazol-1-yl)but-2-en-1-yl)-2-(1-ethyl-3-methyl-1H-pyrazole-5-carboxamido)-7-methoxy-1H-benzo[d]imidazole-5-carboxamide]?
A: IC50 (Ls174T): > 1000 nM; IL1β in plasma ([1]; 3 h): 0.7 pg/mL; IL12p70 in plasma ([1]; 3 h): 174 pg/mL; IL-6 in plasma ([1]; 3 h): 95.7 pg/mL; IL-10 in plasma ([1]; 3 h): 48.8 pg/mL; IP10 in plasma ([1]; 3 h): 703 pg/mL; MCP-1 in plasma ([1]; 3 h): 168 pg/mL; IFNγ in plasma ([1]; 6 h): 0.2 pg/mL; IL1β in plasma ([1]; 6 h): 1.5 pg/mL; IL12p70 in plasma ([1]; 6 h): < 3.2 pg/mL; IL-6 in plasma ([1]; 6 h): 6.8 pg/mL; IL-10 in plasma ([1]; 6 h): 0.8 pg/mL; IP10 in plasma ([1]; 6 h): 3390 pg/mL; MCP-1 in plasma ([1]; 6 h): 796 pg/mL; IFNγ in plasma ([1]; 24 h): < 3.2 pg/mL; IL1β in plasma ([1]; 24 h): 0.8 pg/mL; IL12p70 in plasma ([1]; 24 h): 140 pg/mL; IL-6 in plasma ([1]; 24 h): 13.5 pg/mL; IL-10 in plasma ([1]; 24 h): 34.6 pg/mL; IP10 in plasma ([1]; 24 h): 551 pg/mL; systemic pro-inflammatory cytokine (IL-6 and TNF) production ([1]; plasma of tumor-bearing mice): induced very little pro-inflammatory cytokine (IL-6 and TNF) production
